The source of these data is ChEMBL document CHEMBL6078641, “Modulation of aryl hydrocarbon receptor activity by halogenated indoles” (Bioorg Med Chem, 2024).

Data set [1] concerns LS174T. Nature of the data set: Cytotoxicity against human LS174T cells upto 200 uM incubated for 24 hrs by MTT assay. The format is toxicity, cell-based.
The target in data set [2] is T1, Aryl hydrocarbon receptor (Mus musculus, UniProt P30561).
T1 sequence (P30561 whole entry): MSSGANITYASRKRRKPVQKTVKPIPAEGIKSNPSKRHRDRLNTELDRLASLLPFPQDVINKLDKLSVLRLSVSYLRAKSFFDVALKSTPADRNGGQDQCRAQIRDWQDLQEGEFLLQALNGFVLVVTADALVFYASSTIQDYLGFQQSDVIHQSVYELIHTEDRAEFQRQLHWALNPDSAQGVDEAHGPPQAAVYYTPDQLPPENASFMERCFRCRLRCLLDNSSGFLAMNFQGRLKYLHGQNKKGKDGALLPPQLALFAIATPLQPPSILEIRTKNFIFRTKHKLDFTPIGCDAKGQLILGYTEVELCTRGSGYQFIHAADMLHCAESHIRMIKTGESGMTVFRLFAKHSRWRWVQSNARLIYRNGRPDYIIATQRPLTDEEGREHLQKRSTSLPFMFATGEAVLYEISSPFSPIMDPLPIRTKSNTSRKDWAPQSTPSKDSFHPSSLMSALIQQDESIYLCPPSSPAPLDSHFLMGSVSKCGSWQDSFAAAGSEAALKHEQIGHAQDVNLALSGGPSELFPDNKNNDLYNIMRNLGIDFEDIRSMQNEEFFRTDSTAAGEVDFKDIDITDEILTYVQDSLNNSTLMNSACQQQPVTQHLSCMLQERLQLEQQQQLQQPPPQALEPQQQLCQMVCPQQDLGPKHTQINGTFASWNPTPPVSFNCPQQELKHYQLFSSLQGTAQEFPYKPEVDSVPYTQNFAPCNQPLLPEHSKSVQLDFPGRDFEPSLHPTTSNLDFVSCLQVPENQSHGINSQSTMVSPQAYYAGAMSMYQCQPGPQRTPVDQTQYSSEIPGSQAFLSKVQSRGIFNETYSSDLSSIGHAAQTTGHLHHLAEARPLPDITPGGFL
Nature of the data set: Displacement of [3H]-TCDD from AhR in mouse Hepa1c1c7 cell cytosolic lysate at 50 uM by competitive binding assay relative to control. It is filed as subcellular, Cytosol. The following applies: Hepa-1c1c7, mouse, read-out: Activity. For orientation: Loss of bound radioactivity is the signal in a displacement assay; it reports binding, not function.

Data set [3] can be described thus: Induction of CYP1A1 mRNA expression in human LS180 cells incubated for 4 hrs by chromatin immunoprecipitation assay. It is filed as functional.
Data set [4] has as its target T1, Aryl hydrocarbon receptor. As to the kind of experiment: Displacement of [3H]-TCDD from AhR in mouse Hepa1c1c7 cell cytosolic lysate by competitive binding assay. It is filed as subcellular, Cytosol. The note with it: for Activity: mouse, cytosol, dose 0.1-100 µM.
Data set [5] has as its target T2, Aryl hydrocarbon receptor (Homo sapiens, UniProt P35869).
T2 sequence (P35869 whole entry): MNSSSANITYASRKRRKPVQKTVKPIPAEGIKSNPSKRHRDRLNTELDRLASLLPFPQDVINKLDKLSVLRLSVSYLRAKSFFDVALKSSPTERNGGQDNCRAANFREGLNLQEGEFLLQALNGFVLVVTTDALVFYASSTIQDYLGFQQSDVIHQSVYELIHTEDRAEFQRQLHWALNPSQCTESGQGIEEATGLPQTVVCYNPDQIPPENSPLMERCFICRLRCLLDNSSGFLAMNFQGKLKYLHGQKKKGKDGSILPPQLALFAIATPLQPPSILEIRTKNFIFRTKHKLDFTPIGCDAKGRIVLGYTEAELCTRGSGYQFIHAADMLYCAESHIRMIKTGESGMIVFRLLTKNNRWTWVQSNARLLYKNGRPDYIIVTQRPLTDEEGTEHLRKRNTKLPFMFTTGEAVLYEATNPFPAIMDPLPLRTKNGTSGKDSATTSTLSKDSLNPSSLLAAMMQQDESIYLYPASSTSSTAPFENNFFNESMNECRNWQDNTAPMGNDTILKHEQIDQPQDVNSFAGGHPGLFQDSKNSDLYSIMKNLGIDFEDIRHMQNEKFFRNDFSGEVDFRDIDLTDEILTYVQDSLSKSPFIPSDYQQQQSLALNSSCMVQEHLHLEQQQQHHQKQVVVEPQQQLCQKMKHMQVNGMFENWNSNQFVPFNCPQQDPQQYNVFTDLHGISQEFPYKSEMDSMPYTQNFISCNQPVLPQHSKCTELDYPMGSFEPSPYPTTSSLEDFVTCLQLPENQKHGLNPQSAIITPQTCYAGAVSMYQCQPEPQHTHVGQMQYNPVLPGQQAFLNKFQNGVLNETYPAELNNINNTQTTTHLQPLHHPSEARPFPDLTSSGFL
Nature of the data set: Agonist activity at Luc-fused AhR (unknown origin) transcriptional activity expressed in human LS174T cells incubated for 4 hrs by luciferase reporter gene assay. It is filed as cell-based. (A reporter such as luciferase makes a cellular process visible.)

For data set [6], the target named is T2, Aryl hydrocarbon receptor. As to the kind of experiment: Agonist activity at Luc-fused AhR (unknown origin) transcriptional activity expressed in human LS174T cells at 100 uM incubated for 4 hrs by luciferase reporter gene assay relative to control. The format is cell-based. The following applies: read-out: Activity.
Data set [7] deals with T2, Aryl hydrocarbon receptor. Nature of the data set: Agonist activity at Luc-fused AhR (unknown origin) transcriptional activity expressed in human LS174T cells incubated for 24 hrs by luciferase reporter gene assay. The format is cell-based.
Data set [8] can be described thus: Induction of CYP1A1 mRNA expression in human LS180 cells at 25 uM incubated for 4 hrs by chromatin immunoprecipitation assay relative to control. The format is functional.
Data set [9] relates to LS174T. As to the kind of experiment: Cytotoxicity against human LS174T cells assessed as decrease in cell viability at 200 uM incubated for 24 hrs by MTT assay relative to control. It is filed as toxicity, cell-based. Background: Formazan colour is commonly taken as a measure of viable cells.
The nature of data set [10]: Induction of CYP1A1 mRNA expression in human LS180 cells assessed as fold increase at 100 uM incubated for 8 hrs by qRT-PCR analysis relative to control. It is filed as functional.
Data set [11] in a line: Induction of CYP1A1 mRNA expression in human LS180 cells assessed as fold increase at 100 uM incubated for 24 hrs by qRT-PCR analysis relative to control. The format is functional.

pEC50, pIC50, pKi: −log10 of the molar value.

Take `Fc1ccc2cc[nH]c2c1`: the Activity result in [1] is “Non-toxic”.

As to `Clc1cccc2cc[nH]c12`, the Activity entry in [1] is recorded as “Non-toxic”.

The term EC80 denotes the concentration needed for an effect of 80%. Broadly, the pIC50 is the IC50 on a negative log10 scale, so that one unit is a factor of ten. In general, pKi refers to the negative decadic logarithm of the Ki, by convention in mol/L. Low values mean a high Ki, high ones a low Ki. As to `O=C1Cc2ccc(Cl)cc2N1`, the inhibition at 50 µM in data set [2] came out at 50%. The EC80 in data set [3] was 0.3 µM. Further, in data set [1], the Activity result is “Non-toxic”. In data set [4], the pIC50 was 5.13, the pKi was 5.43 and the Activity entry is “Dose-dependent-effect”.

`Brc1cccc2[nH]ccc12`: the Activity result in data set [1] is recorded as “Non-toxic”.

Consider `O=C1Cc2cccc(Cl)c2N1`, for which the Activity result in data set [1] is “Non-toxic”.

Regarding `O=C1Cc2cc(Cl)ccc2N1`, the Activity entry in [1] is “Non-toxic”.

One may read the pEC50 as the EC50 on a negative log10 scale, so that one unit is a factor of ten. As to `O=C1Cc2ccc(Br)cc2N1`, the inhibition at 50 µM in data set [2] amounted to 10%. In addition, the pEC50 in data set [5] is 5.60; in data set [7], 4.73. Also, in data set [6], the activity at 100 µM amounted to 68%. In [8], this molecule yielded an Efficacy of 12%. The same molecule displayed an EC80 in data set [3] of 33.1 µM. Moreover, the results for the Activity entry in data set [1] and in [4] were “Non-toxic” and “Dose-dependent-effect”, respectively. In [4], this molecule had a pIC50 below 4.00.

On to `Brc1ccc2[nH]ccc2c1`, for which the pEC50 in data set [5] is 5.17; in [7], 4.24. For the same molecule, in [6], the activity at 100 µM was 108%. Besides, the Activity result in data set [1] is on record as “Non-toxic”.

In data set [3], `Brc1ccc2cc[nH]c2c1` had an EC80 of 4.1 µM. Also, the Activity result in data set [1] is “Non-toxic”. In addition, in [4], the pIC50 is 4.36, the negative logarithm of the Ki (pKi) was 4.66 and the Activity result is “Dose-dependent-effect”.

With `Clc1ccc2cc[nH]c2c1`, the pEC50 in data set [5] was 5.37; in [7], 4.09. The activity at 100 µM in [6] came to 92%. Moreover, in data set [1], the Activity entry is “Non-toxic”.

Take `Clc1ccc2[nH]ccc2c1`: the pEC50 in data set [5] was 4.62; in data set [7], 4.11. In data set [6], the activity at 100 µM is 30%. In addition, the Activity in data set [9] was 50%; in data set [1], “Non-toxic”.

In the case of `Fc1ccc2[nH]ccc2c1`, in data set [1], the Activity entry is listed as “Non-toxic”.

Consider `Brc1cccc2cc[nH]c12`, for which the inhibition at 50 µM in data set [2] was above 70%. The same molecule yielded an EC80 in data set [3] of 5.5 µM. Besides, in [1], the Activity result is on record as “Non-toxic”.

Take `Fc1cccc2[nH]ccc12`: the inhibition at 50 µM in [2] was above 70%. Further, in data set [3], it took 5.1 µM to reach the 80% level (EC80). Further, in data set [1], the Activity entry is listed as “Non-toxic”. For the same molecule, in data set [4], the pIC50 was 4.74, the pKi was 5.04 and the Activity entry is on record as “Dose-dependent-effect”.

Consider `O=C1Cc2cc(Br)ccc2N1`, for which, in data set [2], the inhibition at 50 µM amounted to 20%. Moreover, the EC80 in [3] was found to be 4.7 µM. Besides, the Activity entry in data set [1] was “Non-toxic”. Moreover, in [4], the pIC50 is below 4.00 and the Activity entry is listed as “Dose-dependent-effect”.

Regarding `Fc1cccc2cc[nH]c12`, the inhibition at 50 µM in [2] is above 70%. Besides, the EC80 in [3] turned out to be 3.8 µM. Further, the Activity result in data set [1] is reported as “Non-toxic”. In [4], the pIC50 is 4.66, the pKi is 4.96 and the Activity entry is “Dose-dependent-effect”.

`O=C1Cc2cc(F)ccc2N1`: the Activity result in data set [1] is on record as “Non-toxic”.

In data set [5], `Clc1cccc2[nH]ccc12` showed a pEC50 of 5.10. Further, in data set [6], the activity at 100 µM turned out to be 15%. The Activity is listed as 50% in data set [9] and “Non-toxic” in data set [1].

With `Clc1cc2c(cc1Cl)Oc1cc(Cl)c(Cl)cc1O2` [2,3,7,8-TETRACHLORODIBENZO-P-DIOXIN], the “fold change (FC)” value in data set [10] is recorded as around 26; in data set [11] it was around 92.

On to `c1ccc2[nH]ccc2c1` [INDOLE], for which the results for the pEC50 in [5] and in [7] were 4.95 and 4.37, respectively. Besides, the activity at 100 µM in data set [6] came to 94%. Moreover, the Activity result in data set [1] is on record as “Non-toxic”.

For `O=C1Cc2ccccc2N1` [OXINDOLE], the results for the pEC50 in data set [5] and in [7] were 5.28 and 4.09, respectively. Also, in [6], the activity at 100 µM is 86%. In addition, in data set [1], the Activity result was “Non-toxic”.
